Assay results reported in patent publication US12448394B2, “Heterocyclic pyrazole derivatives as type III receptor tyrosine kinase inhibitors” (DEVELOPMENT CENTER FOR BIOTECHNOLOGY, priority 2019, dated 2025).
Where two headings read alike, the source gives them in different places.

Legend:
FLT3-D835Y mutant kinase = target: T1, FLT3-D835Y mutant kinase (Homo sapiens, UniProt P36888, D835Y); assay: FLT3-D835Y mutant kinase assay (AlphaScreen); format: biochemical; details: read-out: Ranking of IC50 values, FLT3-D835Y
T1 construct: purchased SignalChem
T1 sequence (P36888 27-993 D835Y): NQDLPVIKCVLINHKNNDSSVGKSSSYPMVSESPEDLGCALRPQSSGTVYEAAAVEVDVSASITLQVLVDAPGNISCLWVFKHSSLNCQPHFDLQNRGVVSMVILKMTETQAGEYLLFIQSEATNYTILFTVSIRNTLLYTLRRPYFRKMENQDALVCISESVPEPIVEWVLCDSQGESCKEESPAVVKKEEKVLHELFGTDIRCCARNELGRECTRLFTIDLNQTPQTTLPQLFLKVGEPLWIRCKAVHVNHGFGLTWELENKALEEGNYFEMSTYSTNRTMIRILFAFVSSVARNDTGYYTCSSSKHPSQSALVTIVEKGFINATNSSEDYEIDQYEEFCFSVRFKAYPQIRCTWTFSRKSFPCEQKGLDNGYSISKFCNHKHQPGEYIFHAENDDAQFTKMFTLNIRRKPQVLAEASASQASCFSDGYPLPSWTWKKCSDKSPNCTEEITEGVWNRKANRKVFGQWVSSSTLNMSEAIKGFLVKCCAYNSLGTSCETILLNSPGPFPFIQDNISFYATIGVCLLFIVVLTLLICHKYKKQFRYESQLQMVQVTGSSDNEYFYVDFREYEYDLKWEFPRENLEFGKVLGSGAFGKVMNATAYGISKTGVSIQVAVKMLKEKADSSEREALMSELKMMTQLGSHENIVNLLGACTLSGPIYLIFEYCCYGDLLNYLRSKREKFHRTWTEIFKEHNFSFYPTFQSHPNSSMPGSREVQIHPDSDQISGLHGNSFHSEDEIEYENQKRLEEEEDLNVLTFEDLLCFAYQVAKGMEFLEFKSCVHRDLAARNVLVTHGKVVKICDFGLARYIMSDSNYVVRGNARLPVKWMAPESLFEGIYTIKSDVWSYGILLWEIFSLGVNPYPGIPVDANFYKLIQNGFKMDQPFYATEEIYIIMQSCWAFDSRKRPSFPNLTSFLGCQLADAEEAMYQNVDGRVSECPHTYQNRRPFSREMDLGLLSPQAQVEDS
How it was run: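 Recombinant FLT3-D835Y (1 ng) phosphorylated biotin-poly(Glu4:Tyr1) at 10 μM ATP, pH 7.0 MOPS buffer with 10 mM MgCl2, for 30 min at 30 °C, stopped with EDTA. Product was read by AlphaScreen. IC50 came from serial dilutions run in duplicate.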

[1] = test system: MV4-11 human acute myeloid leukemia cell with FLT3-ITD mutation; assay: MV4-11 cell proliferation assay (CellTiter 96); format: cell-based; details: MV4-11 cells, 72 hours treatment, CellTiter96, read-out: anti-proliferation activity MV4-11 (FLT3-ITD), IC50 ranking
How it was run: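 Cells seeded at 6500/well in IMDM with 10% heat-inactivated FBS, left overnight at 37 °C, 5% CO2, then exposed to increasing compound concentrations for 72 h. Viability read as absorbance at 490 nm after 2–4 h with CellTiter96 AQueous One reagent.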

PDGFRα kinase = target: T2, PDGFRα kinase (Homo sapiens, UniProt P16234); assay: PDGFRα kinase assay (AlphaScreen); format: biochemical; details: read-out: Ranking of IC50 values, PDGFRα
T2 construct: purchased SignalChem
T2 sequence (P16234 24-1089): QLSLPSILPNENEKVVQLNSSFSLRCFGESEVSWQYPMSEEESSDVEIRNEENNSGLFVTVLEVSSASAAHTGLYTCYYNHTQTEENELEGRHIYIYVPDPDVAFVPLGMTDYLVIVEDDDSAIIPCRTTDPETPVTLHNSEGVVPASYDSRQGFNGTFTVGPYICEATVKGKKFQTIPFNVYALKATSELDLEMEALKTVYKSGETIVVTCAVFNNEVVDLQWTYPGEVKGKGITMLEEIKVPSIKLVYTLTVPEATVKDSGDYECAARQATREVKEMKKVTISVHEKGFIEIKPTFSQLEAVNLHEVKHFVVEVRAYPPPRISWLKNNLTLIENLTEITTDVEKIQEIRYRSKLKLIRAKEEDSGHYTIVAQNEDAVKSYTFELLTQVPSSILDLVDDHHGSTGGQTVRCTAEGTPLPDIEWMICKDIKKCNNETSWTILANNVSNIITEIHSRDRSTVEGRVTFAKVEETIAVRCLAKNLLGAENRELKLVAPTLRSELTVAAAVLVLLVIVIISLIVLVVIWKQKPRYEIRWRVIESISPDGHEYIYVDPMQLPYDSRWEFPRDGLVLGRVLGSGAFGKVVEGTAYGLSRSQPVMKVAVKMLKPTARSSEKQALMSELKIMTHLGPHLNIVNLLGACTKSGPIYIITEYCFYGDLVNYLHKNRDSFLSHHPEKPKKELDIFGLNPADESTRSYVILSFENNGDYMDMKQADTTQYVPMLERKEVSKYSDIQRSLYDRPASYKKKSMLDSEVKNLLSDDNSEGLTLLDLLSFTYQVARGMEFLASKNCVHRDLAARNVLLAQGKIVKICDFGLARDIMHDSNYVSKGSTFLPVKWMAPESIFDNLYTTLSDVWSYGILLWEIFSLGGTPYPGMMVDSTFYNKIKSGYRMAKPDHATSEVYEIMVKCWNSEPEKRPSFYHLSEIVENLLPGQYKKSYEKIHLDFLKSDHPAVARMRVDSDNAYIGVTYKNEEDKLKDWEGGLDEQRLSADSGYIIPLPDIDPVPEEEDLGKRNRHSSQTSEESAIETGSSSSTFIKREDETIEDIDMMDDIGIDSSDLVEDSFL
How it was run: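 Recombinant PDGFRα (1.5 ng) phosphorylated biotinylated poly(Glu4:Tyr1) with 10 μM ATP in MOPS pH 7.0 with 10 mM MgCl2, 30 min at 30 °C, stopped with EDTA. Product detected by AlphaScreen; IC50 from serial dilutions run in duplicate.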

| Compound | IC50 (FLT3-D835Y mutant kinase) [µM] | IC50 ([1]; Homo sapiens, MV4-11, 72 h) [µM] | IC50 (PDGFRα kinase) [µM] | IC50 [1] [µM] |
| --- | --- | --- | --- | --- |
| COc1cc(-c2cc3c(s2)Cc2c(-c4ccc5cnn(C)c5c4)n[nH]c2-3)ccc1C(=O)N1CCOCC1 [Compound 43, (2-methoxy-4-(3-(1-methyl-1H-indazol-6-yl)-1,4-dihydrothieno [2′,3′:4,5]cyclopenta [1,2-c]pyrazol-6-yl)phenyl)(morpholino) methanone] | 0.001 to 0.01 | 0.03 to 0.1 | 0.001 to 0.01 |  |
| Cn1ncc2ccc(-c3n[nH]c4c3Cc3sc(-c5ccc(CN6CCOCC6)c(F)c5)cc3-4)cc21 [Compound 25, 4-(2-fluoro-4-(3-(1-methyl-1H-indazol-6-yl)-1,4-dihydrothieno[2′,3′:4,5]cyclopenta[1,2-c]pyrazol-6-yl)benzyl)morpholine] | 0.001 to 0.01 | < 0.03 | 0.001 to 0.01 |  |
| Cn1ncc2ccc(-c3n[nH]c4c3Cc3sc(-c5ccc(C(=O)N6CCCC6)cc5)cc3-4)cc21 [Compound 38, (4-(3-(1-methyl-1H-indazol-6-yl)-1,4-dihydro-thieno[2′,3′:4,5]cyclopenta [1,2-c]pyrazol-6-yl)phenyl)(pyrrolidin-1-yl) methanone] | 0.001 to 0.01 | < 0.03 | 0.01 to 0.03 |  |
| Cn1ncc2ccc(-c3n[nH]c4c3Cc3sc(-c5ccc(C(=O)N6CCCCC6)cc5)cc3-4)cc21 [Compound 34, (4-(3-(1-methyl-1H-indazol-6-yl)-1,4-dihydro-thieno[2′,3′:4,5]cyclopenta [1,2-c]pyrazol-6-yl)phenyl)(piperidin-1-yl) methanone] | 0.001 to 0.01 | 0.03 to 0.1 | 0.03 to 0.1 |  |
| CN1CCN(Cc2cccc(-c3cc4c(s3)Cc3c(-c5ccc6cnn(C)c6c5)n[nH]c3-4)c2)CC1 [Compound 14, 3-(1-methyl-1H-indazol-6-yl)-6-(3-((4-methylpiperazin-1-yl)methyl)phenyl)-1,4-dihydrothieno [2′,3′:4,5]cyclopenta[1,2-c] pyrazole] | 0.001 to 0.01 | < 0.03 | 0.01 to 0.03 |  |
| CC(C)n1ncc2ccc(-c3n[nH]c4c3Cc3sc(-c5ccc(CN6CCOCC6)cc5)cc3-4)cc21 [Compound 42, 4-(4-(3-(1-isopropyl-1H-indazol-6-yl)-1,4-dihydro-thieno[2′,3′:4,5]cyclopenta [1,2-c]pyrazol-6-yl)benzyl)morpholine] | 0.001 to 0.01 | 0.03 to 0.1 | 0.01 to 0.03 |  |
| Cn1ncc2ccc(-c3n[nH]c4c3Cc3sc(-c5ccc(CN6CC(F)(F)C6)cc5)cc3-4)cc21 [Compound 104, 6-(4-((3,3-difluoroazeti-din-1-yl)methyl)phenyl)-3-(1-methyl-1H-indazol-6-yl)-1,4-dihydrothieno [2′,3′:4,5]cyclopenta [1,2-c]pyrazole] | 0.001 to 0.01 | 0.03 to 0.1 | 0.03 to 0.1 |  |
| Cn1ncc2ccc(-c3n[nH]c4c3Cc3sc(C5CCN(C(=O)OC(C)(C)C)CC5)cc3-4)cc21 [Compound 58, tert-butyl-4-(3-(1-methyl-1H-indazol-6-yl)-1,4-dihydrothieno[2′,3′:4,5]cyclopenta[1,2-c]pyrazol-6-yl)piperidine-1-carboxylate] | 0.001 to 0.01 | 0.03 to 0.1 | 0.03 to 0.1 |  |
| Cn1ncc2ccc(-c3n[nH]c4c3Cc3sc(-c5ccc(CCN6CCOCC6)cc5)cc3-4)cc21 [Compound 22, 4-(4-(3-(1-methyl-1H-indazol-6-yl)-1,4-dihydro-thieno[2′,3′:4,5]cyclopenta [1,2-c]pyrazol-6-yl)phenethyl)morpholine] | 0.001 to 0.01 | < 0.03 | 0.01 to 0.03 |  |

Second part, the compound after the results:

| IC50 (FLT3-D835Y mutant kinase) [µM] | IC50 ([1]; Homo sapiens, MV4-11, 72 h) [µM] | IC50 (PDGFRα kinase) [µM] | IC50 [1] [µM] | Compound |
| --- | --- | --- | --- | --- |
| < 0.001 | < 0.03 | 0.001 to 0.01 |  | CN1CCN(C(=O)c2ccc(-c3cc4c(s3)Cc3c(-c5ccc6cnn(C)c6c5)n[nH]c3-4)cc2)CC1 [Compound 15, (4-(3-(1-methyl-1H-indazol-6-yl)-1,4-dihydrothieno[2′,3′:4,5]cyclopenta[1,2-c]pyrazol-6-yl)phenyl)(4-methyl-piperazin-1-yl)methanone] |
| < 0.001 | < 0.03 | 0.001 to 0.01 |  | COc1cc(-c2cc3c(s2)Cc2c(-c4ccc5cnn(C)c5c4)n[nH]c2-3)ccc1CN1CCOCC1 [Compound 24, 4-(2-methoxy-4-(3-(1-methyl-1H-indazol-6-yl)-1,4-dihydrothieno[2′,3′:4,5]cyclopenta[1,2-c]pyrazol-6-yl)benzyl)morpholine] |
| < 0.001 |  | 0.001 to 0.01 | 0.03 to 0.1 | Cc1ccc(-c2cc3c(s2)Cc2c(-c4ccc5cnn(C)c5c4)n[nH]c2-3)cn1 [Compound 33, 3-(1-methyl-1H-indazol-6-yl)-6-(6-methylpyridin-3-yl)-1,4-dihydrothieno [2′,3′:4,5]cyclopenta [1,2-c]pyrazole] |
| < 0.001 | < 0.03 | 0.001 to 0.01 |  | Cn1ncc2ccc(-c3n[nH]c4c3Cc3sc(-c5ccc(S(=O)(=O)N6CCOCC6)cc5)cc3-4)cc21 [Compound 47, 4-((4-(3-(1-methyl-1H-indazol-6-yl)-1,4-dihydro-thieno[2′,3′:4,5]cyclopenta [1,2-c]pyrazol-6-yl)phenyl)sulfonyl) morpholine] |
| < 0.001 | < 0.03 | 0.01 to 0.03 |  | Cn1ncc2ccc(-c3n[nH]c4c3Cc3sc(-c5cnc(N)nc5)cc3-4)cc21 [Compound 45, 5-(3-(1-methyl-1H-indazol-6-yl)-1,4-dihydrothieno [2′,3′:4,5]cyclopenta[l,2-c]pyrazol-6-yl)pyrimidin-2-amine] |
| < 0.001 | < 0.03 | 0.001 to 0.01 |  | Cn1ncc2ccc(-c3n[nH]c4c3Cc3sc(C5CCN(C(=O)CN6CCOCC6)CC5)cc3-4)cc21 [Compound 98, 1-(4-(3-(1-methyl-1H-indazol-6-yl)-1,4-dihydro-thieno[2′,3′:4,5]cyclopenta [1,2-c]pyrazol-6-yl)piperidin-1-yl)-2-morpholinoethan-1-one] |
| < 0.001 | < 0.03 | 0.001 to 0.01 |  | Cn1ncc2ccc(-c3n[nH]c4c3Cc3sc(N5CCOCC5)cc3-4)cc21 [Compound 78, 4-(3-(1-methyl-1H-indazol-6-yl)-1,4-dihydro-thieno[2′,3′:4,5]cyclopenta [1,2-c]pyrazol-6-yl) morpholine] |
| < 0.001 | < 0.03 | 0.03 to 0.1 |  | Cn1ncc2ccc(-c3n[nH]c4c3Cc3sc(C#CCN5CCOCC5)cc3-4)cc21 [Compound 71, 4-(3-(3-(1-methyl-1H-indazol-6-yl)-1,4-dihydro-thieno[2′,3′:4,5]cyclopenta [1,2-c]pyrazol-6-yl)prop-2-yn-1-yl)morpholine] |
| < 0.001 | < 0.03 | 0.001 to 0.01 |  | Cn1ncc2ccc(-c3n[nH]c4c3Cc3sc(-c5ccc(C(=O)N6CCOCC6)cc5)cc3-4)cc21 [Compound 21, (4-(3-(1-methyl-1H-indazol-6-yl)-1,4-dihydro-thieno[2′,3′:4,5]cyclopenta [1,2-c]pyrazol-6-yl)phenyl) (morpholino)methanone] |
| < 0.001 | < 0.03 | 0.001 to 0.01 |  | Cn1ncc2ccc(-c3n[nH]c4c3Cc3sc(-c5ccc(CN6CCC(N7CCOCC7)CC6)cc5)cc3-4)cc21 [Compound 80, 4-(1-(4-(3-(1-methyl-1H-indazol-6-yl)-1,4-dihydro-thieno[2′,3′:4,5]cyclopenta [1,2-c]pyrazol-6-yl)benzyl)piperidin-4-yl) morpholine] |
| < 0.001 | < 0.03 | 0.001 to 0.01 |  | Cn1ncc2ccc(-c3n[nH]c4c3Cc3sc(-c5ccc(C(=O)N6CCOCC6)c(F)c5)cc3-4)cc21 [Compound 44, (2-fluoro-4-(3-(1-methyl-1H-indazol-6-yl)-1,4-dihydrothieno[2′,3′:4,5]cyclopenta[1,2-c]pyrazol-6-yl)phenyl)(morpholino) methanone] |
